Reference: patent US20220143086A1, “METHOD OF HOMING AND RETENTION OF GAMMADELTA T CELLS, OPTIONALLY WITH NATURAL KILLER CELLS, FOR GENERATING CELL COMPOSITIONS FOR USE IN THERAPY” (Gamida Cell Ltd., priority 2019, published 2022)
“Also recorded” adds a separate entry of the source.

Key:
gammadelta T cells [1] = assay: Transplantation and in-vivo homing and retention of expanded gammadelta T-cells in irradiated NSG mice; details: for in-vivo homing and tissue retention of gammadelta cells: cells expanded with 5 mM NAM, CFSE-labeled, i.v. into irradiated NSG mice, 4 days, all tissues analyzed
Protocol: (§1) Healthy donor blood units samples were depleted of TCR alphabeta-expressing T-cells using midiMACS™ columns and TCRα/β Kit (Miltenyi Biotec, Gaithersberg, Md.). Alphabeta-T-cell depleted populations were cultured for 12-13 days in VueLife® (Saint-Gobain, Gaithersburg, Md.) bags with medium supplemented with 0 (control) or 5 mM nicotinamide (NAM) and 50 ng/ml IL-2.
CD3+/gammadelta+ cells were purified from culture, as described above, and then marked with CFSE (Invitrogen, Thermo-Fisher, Carlsbad, Calif.). NSG SCID mice were irradiated at 350cGy. The next day following irradiation, 5-6×10^6 CFSE-labeled CD3+/gammdelta-positive cells per mouse from NAM and control (−NAM) cultures were injected intravenously into the mice.
Mice were sacrificed 4 days after cell infusion, and organs excised. Fractions of CFSE stained cells were evaluated by FACS of organ cell suspensions.

gammadelta T cells [2] = assay: CD62L expression in expanded gammadelta T-cells (FACS); type: cell-based, human
Protocol: as §1
Purified gamma-delta T-cells from NAM-treated and control (−NAM) cultures were stained for CD62L (L-selectin) and analyzed by FACS, using anti-CD62L antibodies.

[3] = tested on: alphabeta-depleted peripheral blood cells; assay: T-cell receptor characterization by FACS of CD3+ cells from cultured alphabeta-depleted blood cells; type: cell-based, human; details: 5 mM nicotinamide
Protocol: as §1
To characterize T cell receptor (TCR) expressed on CD3+ cells in culture, CD3 positive cells were purified with CliniMACS™ CD3 reagent (Miltenyi, 273-01, Gaithersburg, Md.) followed by FACS analysis of the percentages of CD3+/γδ+ and CD3+/α/β+ cells. FACS staining and analysis was performed according to standard procedures employing cell surface-specific antibodies.

[4] = cells cultured with 5 mM NAM, 4 days after infusion, irradiated NSG mice

NC(=O)c1cccnc1 [NAM, nicotinamide]
gammadelta T-cells retained in blood and lung tissue (gammadelta T cells [1]; [4]): nearly three-fold increase | gammadelta T-cells retained in lymphoid tissue (spleen, bone marrow) (gammadelta T cells [1]; [4]): powerful enhancement | in-vivo homing and tissue retention of gammadelta cells (gammadelta T cells [1]): enhanced incidence of homing and retention; also recorded: striking effect | in-vivo homing and tissue retention of gammadelta cells (gammadelta T cells [1]; listed as nicotinamide): greater homing and tissue retention | CD62L expression (in words) (gammadelta T cells [2]; 5 mM NAM versus identical cells cultured without NAM): striking enhancement | increase in CD62L expression (gammadelta T cells [2]; 5 mM nicotinamide, 12-13 days culture, versus culture without NAM): ~3 fold | gammadelta T cells in CD3+ T-cell fraction ([3]; 50 ng/ml IL-2, 12-13 days culture, CD3+ selected, FACS): greater than 90% | effect on expansion of the gammadelta positive component of cultured T-cell populations ([3]; 12-13 days culture): does not seem to affect
